# Measured values taken from the NIST ThermoML archive (doi:10.1021/acs.jced.5b01082).
# Numbers after ± are expanded uncertainties.
# How the values were obtained:
# [1] = 101.33 kPa, Liquid; for viscosity: Cone and plate viscometry; for mass density: Vibrating tube method
# [2] = wn = mass fraction of the nth substance listed; conditions: 100 kPa, Liquid; for viscosity: Cone and plate viscometry; for mass density: Vibrating tube method
viscosity ([1]; 298.15 K) [mPa·s],mass density ([1]; 298.15 K) [kg/m3],viscosity ([1]; 310.15 K) [mPa·s],mass density ([1]; 310.15 K) [kg/m3],viscosity ([1]; 318.15 K) [mPa·s],mass density ([1]; 318.15 K) [kg/m3],"viscosity ([2]; 298.15 K, w2 = 0.151) [mPa·s]","mass density ([2]; 298.15 K, w2 = 0.151) [kg/m3]","viscosity ([2]; 310.15 K, w2 = 0.146) [mPa·s]","mass density ([2]; 310.15 K, w2 = 0.146) [kg/m3]","viscosity ([2]; 318.15 K, w2 = 0.142) [mPa·s]","mass density ([2]; 318.15 K, w2 = 0.142) [kg/m3]",Compound
999.6 ± 120,884.09 ± 9.7,482.6 ± 54,876.93 ± 9.6,316.7 ± 35,872.2 ± 9.5,,,,,,,CC(CC(C)(C)C)CP(=O)([O-])CC(C)CC(C)(C)C.CCCCCCCCCCCCCC[P+](CCCCCC)(CCCCCC)CCCCCC
,,,,,,142.4 ± 15,909.07 ± 9.6,79.66 ± 8.2,900.11 ± 9.5,55.58 ± 5.7,893.78 ± 9.4,CC(CC(C)(C)C)CP(=O)([O-])CC(C)CC(C)(C)C.CCCCCCCCCCCCCC[P+](CCCCCC)(CCCCCC)CCCCCC + O
